Entries after “also recorded” stand apart in the source; their conditions may differ. Read-outs that look alike come from different tables or passages of the source.
Key:
human cytochrome P450 = assay: Protocol C: Assessment of human cytochrome P450-mediated biotransformation (terfenadine, human hepatic S9); assay type: in vitro ADME
Method: The process of preparing incubation mixtures begins by mixing 10 uL of ethanol or an ethanolic solution containing an inhibitor with 100 uL of 100 mg/mL bovine serum albumin (Sigma) dissolved in reaction buffer at room temperature. Reaction buffer is composed of 0.10 M sodium phosphate, 1.0 mM ethylenediaminetetraacetic acid, and 5.0 mM magnesium chloride, pH 7.4 (all reagents: Fisher Scientific). Inhibitory chemicals used were ketoconazole (Research Diagnostics, Inc.), miconazole, bergapten, xanthotoxin (previous three from Sigma), bergamotin, imperatorin, isopimpinellin, psoralen, angelicin (previous five from Indofine Chemical Company, Inc.), and fractions or precipitates resulting from Protocols A and B above. When possible, final inhibitor concentrations were expressed in molarity by calculation from the weighed material or by interpolation from HPLC calibration curves prepared with reference materials; otherwise, concentrations are expressed as weight per volume. Reaction tubes are placed on ice in preparation for the manipulations that follow. Sufficient reaction buffer is added so that the final volume of each tube will be 500 uL, 5 uL of a 100-fold concentrate for generating reduced nicotinamide adenine dinucleotide phosphate is added (such that completed reaction mixture contains 1.0 mM nicotinamide adenine dinucleotide phosphate, 1 U/mL glucose-6-phosphate dehvdrogenase, and 10 mM glucose-6-phosphate; all from Sigma), and then human hiepatic S9 (Anatomic Gift Foundation) is thawed and added in sufficient amounts to cause readily detectable amounts of metabolites to be formed in control reactions (amount necessary varies among individuals, but 10 uL is typical).
The samples prepared above are readied for HPLC assessment using the protocol that follows. Each tube is vortex mixed and centrifuged for 10 min at setting 35, the resulting supernatant is transferred to a clean tube, and the liquid is evaporated using a Speed Vac apparatus. The residue in each tube is first dissolved in 40 uL 1:1 acetonitrile:water, 2.5 mL of acetonitrile is added, and the centrifuge-transfer-evaporate step just described is repeated.
The dry residue resulting from the above-described experiments and sample preparation protocol may be analyzed for terfienadine metabolites using the HPLC method described below and may also be used to quantitate the inhibitory chemicals that were added to the reaction (see Protocol B). Linear gradients are used for elution and are formed by mixing mobile phase A composed of water with mobile phase B composed of 0.025% (v/v) formic acid in acetonitrile (instrument: Hewlett Packard). The elution time, in minutes, the percentage of mobile phase B present in the mixed mobile phase, and the flow rate (mL/min) are as follows: 0, 10, 0.10; 2, 10, 0.10; 3.5, 10, 0.20; 4, 10, 0.25; 5, 10, 0.25; 30, 55, 0.25; 32, 98, 0.25; 33, 98, 0.40; 39.8, 98, 0.40; 40, 98, 0.25; 45, 10, 0.25; 45.25, 10, 0.20; 50, 10, 0.20; 50.25, 10, 0.10. The chromatographic column has dimensions of 150 mm length×2.1 mm internal diameter. is packed with a proprietary material (Prism, Keystone Scientific, Inc.), is protected with a 2 mm internal diameter column containing the same material and with a PTFE filter, and is maintained at 35+/-0.2 C. The dry sample residue is mixed with 60 uL of 1:1 acetonitrile:water followed by 40 uL water just prior to each 50.25 min run cycle. The column eluate from each 10 uL injection is monitored for fluorescence with excitation at 228 nm, emission at 291 nm, and bandpass filtration at 280 nm.

first-pass effect = conditions: orally administered drugs; in words; cited from earlier work
[1] = in words; cited from earlier work
[2] = with inhibitors commonly given to humans; in words; cited from earlier work
[3] = system: first-pass effect of cyclosporin; conditions: heart transplant patients, cyclosporin co-administered with ketoconazole; cited from earlier work
cytochrome P450 = conditions: given to humans in large doses; in words; cited from earlier work

CC(C)=CCOc1c2occc2cc2ccc(=O)oc12 [imperatorin]
first-pass activity according to Protocol C (human cytochrome P450; 2000 nM, in words): non-first-pass inhibiting | first-pass effect inhibition (determined herein) (human cytochrome P450; in words): ineffective

CCC(C)n1ncn(-c2ccc(N3CCN(c4ccc(OCC5COC(Cn6cncn6)(c6ccc(Cl)cc6Cl)O5)cc4)CC3)cc2)c1=O (stereo not shown) [itraconazole]
inhibition of the first-pass effect (first-pass effect): identified as inhibitors of the first-pass effect

COc1c2ccoc2cc2oc(=O)ccc12 [bergapten, 5-methoxypsoralen]
toxicity / phototoxicity [1]: toxic, in particular, phototoxic

Cc1nnc2n1-c1ccc(Cl)cc1C(c1ccccc1Cl)=NC2 [triazolam]
increase of bioavailability by inhibitors [2]: bioavailability is increased by inhibitors

COc1c2ccoc2c(OC)c2oc(=O)ccc12 [isopimpinellin]
first-pass effect inhibition (determined herein) (human cytochrome P450; in words): ineffective

COc1c2occc2cc2ccc(=O)oc12 [xanthotoxin, 8-methoxypsoralen]
toxicity / phototoxicity [1]: toxic, in particular, phototoxic

OC(Cn1cncn1)(Cn1cncn1)c1ccc(F)cc1F [fluconazole]
inhibition of the first-pass effect (first-pass effect): identified as inhibitors of the first-pass effect

CC[C@H]1OC(=O)[C@H](C)[C@@H](O[C@H]2C[C@@](C)(OC)[C@@H](O)[C@H](C)O2)[C@H](C)[C@@H](O[C@@H]2O[C@H](C)C[C@H](N(C)C)[C@H]2O)[C@](C)(O)C[C@@H](C)C(=O)[C@H](C)[C@@H](O)[C@]1(C)O [erythromycin]
inhibition of the first-pass effect (first-pass effect): identified as inhibitors of the first-pass effect

Clc1ccc(COC(Cn2ccnc2)c2ccc(Cl)cc2Cl)c(Cl)c1 (stereo not shown) [miconazole]
inhibition of the first-pass effect (first-pass effect): identified as inhibitors of the first-pass effect

CO[C@H]1C[C@H](O[C@H]2[C@H](C)[C@@H](O[C@@H]3O[C@H](C)C[C@H](N(C)C)[C@H]3OC(C)=O)[C@@H](C)C[C@@]3(CO3)C(=O)[C@H](C)[C@@H](OC(C)=O)[C@@H](C)[C@@H](C)OC(=O)[C@@H]2C)O[C@@H](C)[C@@H]1OC(C)=O [troleandomycin]
inhibition of the first-pass effect (first-pass effect): identified as inhibitors of the first-pass effect

O=c1ccc2ccc3occc3c2o1 [angelicin]
first-pass effect inhibition (determined herein) (human cytochrome P450; in words): ineffective

CC(=O)N1CCN(c2ccc(OCC3COC(Cn4ccnc4)(c4ccc(Cl)cc4Cl)O3)cc2)CC1 (stereo not shown) [ketoconazole]
reduction of the dose of cyclosporin required [3]: approximately 85% | inhibition of the first-pass effect (first-pass effect): inhibition of the first-pass effect of cyclosporin; also recorded: identified as inhibitors of the first-pass effect

CC(C)=CCC/C(C)=C/COc1c2ccoc2cc2oc(=O)ccc12 [bergamottin]
first-pass effect inhibition (determined herein) (human cytochrome P450): ineffective

CC(C)c1nc(CN(C)C(=O)N[C@H](C(=O)N[C@@H](Cc2ccccc2)C[C@H](O)[C@H](Cc2ccccc2)NC(=O)OCc2cncs2)C(C)C)cs1 [ritonavir]
inhibition of the first-pass effect (first-pass effect): identified as inhibitors of the first-pass effect

O=c1ccc2cc3ccoc3cc2o1 [psoralen]
inhibition of cytochrome P450 (cytochrome P450): do inhibit cvtochrome P450 | toxicity / phototoxicity [1]: toxic, in particular, phototoxic | first-pass effect inhibition (determined herein) (human cytochrome P450; in words): ineffective
